From patent US20250381307A1, “RETRO-AAV AND USE IN TREATING NEURODEGENERATIVE DISEASES” (priority 2023, published 2025)

Experiments:
[1] = Locomotion test in naive macaques without viral injection; format: in vivo; settings: naive macaques, n=3, not significant
[2] = target: hM3Dq (Homo sapiens, UniProt P20309, A239G/Y149C); experiment: Slice whole-cell recordings of hM3Dq-transduced MSNs; format: cell-based, mice; parameters: 2A-EYFP (C); host or cells: AAV8R12-transduced EYFP+ striatal MSNs in acute mouse brain slices; settings: AAV8R12-G88P3-HA-hM3Dq-2A-EYFP; CNO 10 μM; basal firing rate and resting membrane potential unaffected
hM3Dq, sequence (P20309 whole entry Y149C/A239G): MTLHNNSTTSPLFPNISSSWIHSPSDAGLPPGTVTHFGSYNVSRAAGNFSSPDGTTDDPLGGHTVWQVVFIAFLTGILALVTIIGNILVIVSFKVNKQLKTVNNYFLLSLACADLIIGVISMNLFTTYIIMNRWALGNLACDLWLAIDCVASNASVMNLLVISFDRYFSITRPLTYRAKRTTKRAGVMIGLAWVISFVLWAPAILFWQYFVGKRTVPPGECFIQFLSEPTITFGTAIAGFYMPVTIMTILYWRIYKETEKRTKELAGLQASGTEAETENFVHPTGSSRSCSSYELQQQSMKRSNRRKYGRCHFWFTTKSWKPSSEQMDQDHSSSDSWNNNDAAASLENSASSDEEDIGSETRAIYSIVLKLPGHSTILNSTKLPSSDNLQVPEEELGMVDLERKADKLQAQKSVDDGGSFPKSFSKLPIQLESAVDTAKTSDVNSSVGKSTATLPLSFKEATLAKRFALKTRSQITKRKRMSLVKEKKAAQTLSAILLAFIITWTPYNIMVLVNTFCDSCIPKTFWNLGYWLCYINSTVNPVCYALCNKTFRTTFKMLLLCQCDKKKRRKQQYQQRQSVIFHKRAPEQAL
Text: Mice from different groups were anesthetized with […] isoflurane, and then decapitated. The brain was quickly extracted and placed in ice-cold N-methyl-D-glucamine (NMDG) cutting solution containing (in mM): 92 NMDG, 2.5 KCl, 25 NaHCO3, 1.25 NaH2PO4, 4.5 D-Glucose, 20 HEPES, 5 L-ascorbic acid, 3 Na-pyruvate, 2 Thiourea, 10 MgSO4, 0.5 CaCl2). The pH was adjusted to 7.2±0.1 using HCl and the osmolarity was adjusted to 305±5 mosmol/L using NMDG. The solution was bubbled with 95% O2/5% CO2 prior to use. Coronal striatum slices were cut in 250-[…]m thickness with a vibratome slicer (Leica, VT1200 S), and then incubated in artificial cerebrospinal fluid (aCSF) saturated with 95% O2/5% CO2 for at least 45 min at 37° C. before recording. The aCSF contains (in mM) 125 NaCl, 1.25 KCl, 25 NaHCO3, 1.25 KH2PO4, 25 D-Glucose, 2 CaCl2) and 1 MgCl2, supplemented with 2 mM Na-pyruvate, 3 mM Myo-inositol and 0.4 mM L-ascorbic acid.
The acute striatum slice was transferred to the recording chamber with a constant perfusion of oxygenized aCSF at the rate of 3 ml/min. Neurons were visualized using an upright microscope (Olympus, BX-51) with a 40×water immersion objective at room temperature (˜25° C.). […] Neurons were quickly visualized under fluorescence microscope and then patch clamp were achieved under infrared light illumination and CCD camera. […]

C[N+]1([O-])CCN(C2=Nc3cc(Cl)ccc3Nc3ccccc32)CC1 [CNO, clozapine N-oxide]
contraversive and ipsiversive rotation (FIG. 11C) ([1]; saline 0.767±0.4296): 0.8384±0.4152
speed of contraversive rotations (FIG. 11G) ([1]; saline 39.07±5.889): 39.63±7.092
speed of ipsiversive rotations (FIG. 11H) ([1]; saline 41.49±3.96): 42.79±4.705
total distance (FIG. 11F) ([1]; saline 53.12±15.3): 59.48±18.65
time spending in the higher portion of the observing cages (FIG. 11D) ([1]; saline 55.73±2.64): 60.43±4.542
immobile time (FIG. 11E) ([1]; saline 149.9±21.61): 149.8±22.65
excitability of transduced MSNs [2]: augmentation of excitability
